Measured values reported in patent US11541028B2, “Peptide pharmaceuticals for treatment of NASH and other disorders” (Mederis Diabetes LLC, priority 2018, dated 2023).
Read-outs that look alike come from different tables or passages of the source. Square brackets hold non-standard residues; d marks the D form. Peptide text beside a SMILES is read from it. * marks the point of attachment. βDGlcA(1-OC18H37) = CCCCCCCCCCCCCCCCCCO[C@@H]1O[C@H](C(=O)*)[C@@H](O)[C@H](O)[C@H]1O; Bip = N[C@@H](Cc1ccc(-c2ccccc2)cc1)C(=O)O; αMeF = C[C@](N)(Cc1ccccc1)C(=O)O; Aib = CC(C)(N)C(=O)O

Assays:
[1] = molecular target: T1, human GLP-1 receptor (Homo sapiens, UniProt P43220); assay: DiscoveRx LeadHunter cellular assay, cAMP stimulation, GLP-1 receptor in CHO cells; format: cell-based; conditions: human GLP-1 receptor in CHO cells (DiscoveRx); read-out: EC50 cAMP GLP-1 R
T1 construct: host or cells: CHO cells

[2] = molecular target: T2, human glucagon receptor (Homo sapiens, UniProt P47871); assay: DiscoveRx LeadHunter cellular assay, cAMP stimulation, glucagon receptor in CHO cells; format: cell-based
T2 construct: host or cells: CHO cells
T2 sequence (P47871 26-477): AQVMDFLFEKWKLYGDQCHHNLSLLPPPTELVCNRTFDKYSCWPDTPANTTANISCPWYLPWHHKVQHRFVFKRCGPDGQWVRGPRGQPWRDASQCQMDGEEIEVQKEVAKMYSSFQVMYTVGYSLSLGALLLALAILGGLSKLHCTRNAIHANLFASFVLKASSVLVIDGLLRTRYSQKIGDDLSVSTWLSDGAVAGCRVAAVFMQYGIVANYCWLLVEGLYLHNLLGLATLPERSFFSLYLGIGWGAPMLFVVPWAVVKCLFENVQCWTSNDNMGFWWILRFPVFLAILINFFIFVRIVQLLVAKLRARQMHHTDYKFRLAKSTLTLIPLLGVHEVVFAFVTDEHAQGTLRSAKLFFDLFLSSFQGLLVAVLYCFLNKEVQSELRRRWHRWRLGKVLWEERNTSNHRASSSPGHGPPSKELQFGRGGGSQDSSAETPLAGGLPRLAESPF

T1 sequence (P43220 24-463): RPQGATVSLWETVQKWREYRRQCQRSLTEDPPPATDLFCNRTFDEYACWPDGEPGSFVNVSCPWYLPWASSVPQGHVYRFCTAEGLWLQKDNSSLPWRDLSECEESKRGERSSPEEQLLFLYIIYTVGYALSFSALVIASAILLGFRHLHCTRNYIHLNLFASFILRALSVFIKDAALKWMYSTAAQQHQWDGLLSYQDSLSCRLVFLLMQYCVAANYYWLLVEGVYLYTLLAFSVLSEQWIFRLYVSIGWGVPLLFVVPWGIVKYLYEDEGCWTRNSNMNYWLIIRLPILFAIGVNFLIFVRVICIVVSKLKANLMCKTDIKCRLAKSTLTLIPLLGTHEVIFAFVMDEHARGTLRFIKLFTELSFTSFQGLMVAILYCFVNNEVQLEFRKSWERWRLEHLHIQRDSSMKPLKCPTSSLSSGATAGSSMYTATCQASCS

EC50 [1]	EC50 [2]	EC50 ([2]; read-out: EC50 cAMP Glucagon R, human glucagon receptor in CHO cells (DiscoveRx))	SMILES
0.007 nM	0.069 nM		CCCCCCCCCCCCCCO[C@@H]1O[C@H](CO[C@H]2O[C@H](C(=O)NCCCC[C@H](NC(=O)[C@@H](NC(=O)[C@H](Cc3ccccc3)NC(=O)[C@H](CCC(=O)O)NC(=O)[C@@H]3CCCCNC(=O)CC[C@H](NC(=O)[C@H](CC(=O)O)NC(=O)[C@H](CC(C)C)NC(=O)[C@H](Cc4ccc(O)cc4)NC(=O)[C@H](CCCCN)NC(=O)[C@H](CO)NC(=O)[C@H](Cc4ccc(O)cc4)NC(=O)[C@H](CC(=O)O)NC(=O)[C@H](CO)NC(=O)[C@@H](NC(=O)[C@H](Cc4ccccc4)NC(=O)[C@@H](NC(=O)CNC(=O)[C@H](CCC(N)=O)NC(=O)C(C)(C)NC(=O)[C@@H](N)Cc4c[nH]cn4)[C@@H](C)O)[C@@H](C)O)C(=O)N[C@@H](CCC(N)=O)C(=O)N[C@@H](C)C(=O)N[C@@H](C)C(=O)N3)[C@@H](C)CC)C(=O)N[C@@H](Cc3c[nH]c4ccccc34)C(=O)N[C@@H](CC(C)C)C(=O)N[C@@H](CC(C)C)C(=O)N[C@@H](CCC(N)=O)C(=O)N[C@H](C(=O)O)[C@@H](C)O)[C@H](O)[C@H](O)[C@H]2O)[C@@H](O)[C@H](O)[C@H]1O [EU-A1577]
0.079 nM	0.204 nM		CCCCCCCCCCCCO[C@@H]1O[C@H](CO[C@H]2O[C@H](C(=O)N[C@@H](CCC(=O)NCCCC[C@H](NC(=O)[C@@H](NC(=O)[C@H](Cc3ccccc3)NC(=O)[C@H](CCC(=O)O)NC(=O)[C@@H]3CCCCNC(=O)CC[C@H](NC(=O)[C@H](CC(=O)O)NC(=O)[C@H](CC(C)C)NC(=O)[C@H](Cc4ccc(O)cc4)NC(=O)[C@H](CCCCN)NC(=O)[C@H](CO)NC(=O)[C@H](Cc4ccc(O)cc4)NC(=O)[C@H](CC(=O)O)NC(=O)[C@H](CO)NC(=O)[C@@H](NC(=O)[C@H](Cc4ccccc4)NC(=O)[C@@H](NC(=O)CNC(=O)[C@H](CCC(N)=O)NC(=O)C(C)(C)NC(=O)[C@@H](N)Cc4c[nH]cn4)[C@@H](C)O)[C@@H](C)O)C(=O)N[C@@H](CCC(N)=O)C(=O)N[C@@H](C)C(=O)N[C@@H](C)C(=O)N3)[C@@H](C)CC)C(=O)N[C@@H](Cc3c[nH]c4ccccc34)C(=O)N[C@@H](CC(C)C)C(=O)N[C@@H](CC(C)C)C(=O)N[C@@H](CCC(N)=O)C(=O)N[C@H](C(=O)O)[C@@H](C)O)C(=O)O)[C@H](O)[C@H](O)[C@H]2O)[C@@H](O)[C@H](O)[C@H]1O [EU-A1616]
0.051 nM	0.24 nM		CCCCCCCCCCCCO[C@@H]1O[C@H](CO[C@H]2O[C@H](C(=O)N[C@@H](CCC(=O)N[C@@H](CCC(=O)NCCCC[C@H](NC(=O)[C@@H](NC(=O)[C@H](Cc3ccccc3)NC(=O)[C@H](CCC(=O)O)NC(=O)[C@@H]3CCCCNC(=O)CC[C@H](NC(=O)[C@H](CC(=O)O)NC(=O)[C@H](CC(C)C)NC(=O)[C@H](Cc4ccc(O)cc4)NC(=O)[C@H](CCCCN)NC(=O)[C@H](CO)NC(=O)[C@H](Cc4ccc(O)cc4)NC(=O)[C@H](CC(=O)O)NC(=O)[C@H](CO)NC(=O)[C@@H](NC(=O)[C@H](Cc4ccccc4)NC(=O)[C@@H](NC(=O)CNC(=O)[C@H](CCC(N)=O)NC(=O)C(C)(C)NC(=O)[C@@H](N)Cc4c[nH]cn4)[C@@H](C)O)[C@@H](C)O)C(=O)N[C@@H](CCC(N)=O)C(=O)N[C@@H](C)C(=O)N[C@@H](C)C(=O)N3)[C@@H](C)CC)C(=O)N[C@@H](Cc3c[nH]c4ccccc34)C(=O)N[C@@H](CC(C)C)C(=O)N[C@@H](CC(C)C)C(=O)N[C@@H](CCC(N)=O)C(=O)N[C@H](C(=O)O)[C@@H](C)O)C(=O)O)C(=O)O)[C@H](O)[C@H](O)[C@H]2O)[C@@H](O)[C@H](O)[C@H]1O [EU-A1620]
0.304 nM	0.705 nM		CCCCCCCCCCCCCCO[C@@H]1O[C@H](CO[C@H]2O[C@H](C(=O)N[C@@H](CCC(=O)N[C@@H](CCC(=O)NCCCC[C@H](NC(=O)[C@@H](NC(=O)[C@H](Cc3ccccc3)NC(=O)[C@H](CCC(=O)O)NC(=O)[C@@H]3CCCCNC(=O)CC[C@H](NC(=O)[C@H](CC(=O)O)NC(=O)[C@H](CC(C)C)NC(=O)[C@H](Cc4ccc(O)cc4)NC(=O)[C@H](CCCCN)NC(=O)[C@H](CO)NC(=O)[C@H](Cc4ccc(O)cc4)NC(=O)[C@H](CC(=O)O)NC(=O)[C@H](CO)NC(=O)[C@@H](NC(=O)[C@H](Cc4ccccc4)NC(=O)[C@@H](NC(=O)CNC(=O)[C@H](CCC(N)=O)NC(=O)C(C)(C)NC(=O)[C@@H](N)Cc4c[nH]cn4)[C@@H](C)O)[C@@H](C)O)C(=O)N[C@@H](CCC(N)=O)C(=O)N[C@@H](C)C(=O)N[C@@H](C)C(=O)N3)[C@@H](C)CC)C(=O)N[C@@H](Cc3c[nH]c4ccccc34)C(=O)N[C@@H](CC(C)C)C(=O)N[C@@H](CC(C)C)C(=O)N[C@@H](CCC(N)=O)C(=O)N[C@H](C(N)=O)[C@@H](C)O)C(=O)O)C(=O)O)[C@H](O)[C@H](O)[C@H]2O)[C@@H](O)[C@H](O)[C@H]1O [EU-A1627]

Further lines, the compound ahead of its results:

SMILES	EC50 [1]	EC50 [2]	EC50 ([2]; read-out: EC50 cAMP Glucagon R, human glucagon receptor in CHO cells (DiscoveRx))
CCCCCCCCO[C@@H]1O[C@H](C(=O)NCCCC[C@H](NC(=O)[C@@H](NC(=O)[C@H](Cc2ccccc2)NC(=O)[C@H](CCC(=O)O)NC(=O)[C@@H]2CCCCNC(=O)CC[C@H](NC(=O)[C@H](CC(=O)O)NC(=O)[C@H](CC(C)C)NC(=O)[C@H](Cc3ccc(O)cc3)NC(=O)[C@H](CCCCN)NC(=O)[C@H](CO)NC(=O)[C@H](Cc3ccc(O)cc3)NC(=O)[C@H](CC(=O)O)NC(=O)[C@H](CO)NC(=O)[C@@H](NC(=O)[C@H](Cc3ccccc3)NC(=O)[C@@H](NC(=O)CNC(=O)[C@H](CCC(N)=O)NC(=O)C(C)(C)NC(=O)[C@@H](N)Cc3c[nH]cn3)[C@@H](C)O)[C@@H](C)O)C(=O)N[C@@H](CCC(N)=O)C(=O)N[C@@H](C)C(=O)N[C@@H](C)C(=O)N2)[C@@H](C)CC)C(=O)N[C@@H](Cc2c[nH]c3ccccc23)C(=O)N[C@@H](CC(C)C)C(=O)N[C@@H](CC(C)C)C(=O)N[C@@H](CCC(N)=O)C(=O)N[C@H](C(=O)O)[C@@H](C)O)[C@@H](O)[C@H](O)[C@H]1O [EU-A1679]	0.009 nM	0.14 nM	
CCCCCCCCCCCCCCO[C@@H]1O[C@H](C(=O)NCCCC[C@H](NC(=O)[C@@H](NC(=O)[C@H](Cc2ccccc2)NC(=O)[C@H](CCC(=O)O)NC(=O)[C@@H]2CCCCNC(=O)CC[C@H](NC(=O)[C@H](CC(=O)O)NC(=O)[C@H](CC(C)C)NC(=O)[C@H](Cc3ccc(O)cc3)NC(=O)[C@H](CCCCN)NC(=O)[C@H](CO)NC(=O)[C@H](Cc3ccc(O)cc3)NC(=O)[C@H](CC(=O)O)NC(=O)[C@H](CO)NC(=O)[C@@H](NC(=O)[C@H](Cc3ccccc3)NC(=O)[C@@H](NC(=O)CNC(=O)[C@H](CCC(N)=O)NC(=O)C(C)(C)NC(=O)[C@@H](N)Cc3c[nH]cn3)[C@@H](C)O)[C@@H](C)O)C(=O)N[C@@H](CCC(N)=O)C(=O)N[C@@H](C)C(=O)N[C@@H](C)C(=O)N2)[C@@H](C)CC)C(=O)N[C@@H](Cc2c[nH]c3ccccc23)C(=O)N[C@@H](CC(C)C)C(=O)N[C@@H](CC(C)C)C(=O)N[C@@H](CCC(N)=O)C(=O)N[C@H](C(=O)O)[C@@H](C)O)[C@@H](O)[C@H](O)[C@H]1O [EU-A1682]	0.21 nM	1.26 nM	
CCCCCCCCCCCCCCCCCCO[C@@H]1O[C@H](C(=O)NCCCC[C@H](NC(=O)[C@@H](NC(=O)[C@H](Cc2ccccc2)NC(=O)[C@H](CCC(=O)O)NC(=O)[C@@H]2CCCCNC(=O)CC[C@H](NC(=O)[C@H](CC(=O)O)NC(=O)[C@H](CC(C)C)NC(=O)[C@H](Cc3ccc(O)cc3)NC(=O)[C@H](CCCCN)NC(=O)[C@H](CO)NC(=O)[C@H](Cc3ccc(O)cc3)NC(=O)[C@H](CC(=O)O)NC(=O)[C@H](CO)NC(=O)[C@@H](NC(=O)[C@H](Cc3ccccc3)NC(=O)[C@@H](NC(=O)CNC(=O)[C@H](CCC(N)=O)NC(=O)C(C)(C)NC(=O)[C@@H](N)Cc3c[nH]cn3)[C@@H](C)O)[C@@H](C)O)C(=O)N[C@@H](CCC(N)=O)C(=O)N[C@@H](C)C(=O)N[C@@H](C)C(=O)N2)[C@@H](C)CC)C(=O)N[C@@H](Cc2c[nH]c3ccccc23)C(=O)N[C@@H](CC(C)C)C(=O)N[C@@H](CC(C)C)C(=O)N[C@@H](CCC(N)=O)C(=O)N[C@H](C(N)=O)[C@@H](C)O)[C@@H](O)[C@H](O)[C@H]1O [EU-A996]	0.05 nM		
CCCCCCCCCCCCO[C@@H]1O[C@H](C(=O)O)[C@@H](O[C@H]2O[C@H](C(=O)NCCCC[C@H](NC(=O)[C@@H](NC(=O)[C@H](Cc3ccccc3)NC(=O)[C@H](CCC(=O)O)NC(=O)[C@@H]3CCCCNC(=O)CC[C@H](NC(=O)[C@H](CC(=O)O)NC(=O)[C@H](CC(C)C)NC(=O)[C@H](Cc4ccc(O)cc4)NC(=O)[C@H](CCCCN)NC(=O)[C@H](CO)NC(=O)[C@H](Cc4ccc(O)cc4)NC(=O)[C@H](CC(=O)O)NC(=O)[C@H](CO)NC(=O)[C@@H](NC(=O)[C@H](Cc4ccccc4)NC(=O)[C@@H](NC(=O)CNC(=O)[C@H](CCC(N)=O)NC(=O)C(C)(C)NC(=O)[C@@H](N)Cc4c[nH]cn4)[C@@H](C)O)[C@@H](C)O)C(=O)N[C@@H](CCC(N)=O)C(=O)N[C@@H](C)C(=O)N[C@@H](C)C(=O)N3)[C@@H](C)CC)C(=O)N[C@@H](Cc3c[nH]c4ccccc34)C(=O)N[C@@H](CC(C)C)C(=O)N[C@@H](CC(C)C)C(=O)N[C@@H](CCC(N)=O)C(=O)N[C@H](C(N)=O)[C@@H](C)O)[C@@H](O)[C@H](O)[C@H]2O)[C@H](O)[C@H]1O [EU-A999]	0.05 nM		
CCCCCCCCCCCCCCCCCCO[C@@H]1O[C@H](C(=O)NCCCC[C@H](NC(=O)[C@H](Cc2ccc(-c3ccccc3)cc2)NC(=O)[C@H](CC(=O)O)NC(=O)[C@H](CO)NC(=O)[C@@H](NC(=O)[C@](C)(Cc2ccccc2)NC(=O)[C@@H](NC(=O)CNC(=O)[C@H](CCC(N)=O)NC(=O)C(C)(C)NC(=O)[C@@H](N)Cc2c[nH]cn2)[C@@H](C)O)[C@@H](C)O)C(N)=O)[C@@H](O)[C@H](O)[C@H]1O [EU-A757] (H-H[Aib]QGT[αMeF]TSD[Bip]K(βDGlcA(1-OC18H37))-NH2; N-terminus assumed)			> 1000 nM
